Experimental data taken from PubChem BioAssay AID330 (DTP/NCI, 2004).
“And” between values parts separate entries of the source, which are not always exact repeats. Identical values can stand only once. Toxic doses and inconclusive results are not listed. The calls were made as follows: active = survival T/C of 150% or more; inactive = T/C below 125% in these data.

System: P388 leukemia ip, CD2F1 mice, survival T/C
Test: NCI In Vivo Anticancer Drug Screen. Data for tumor model P388 Leukemia (intraperitoneal) in CD2F1 (CDF1) mice
Details: endpoint: median survival time, higher = longer survival
Method in brief: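 Mice carrying the transplanted tumor received test compound or vehicle. Survival was recorded in each group, and the value is the treated-group measurement divided by that of the vehicle-treated control group.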

[1] = dose: 50.0 mg/kg/injection, schedule: Q01DX009 (ip), vehicle: saline
[2] = dose: 100.0 mg/kg/injection, schedule: Q01DX009 (ip), vehicle: saline
[3] = dose: 60.0 mg/kg/injection, schedule: Q01DX005 (ip), vehicle: saline with Tween-80
[4] = dose: 120.0 mg/kg/injection, schedule: Q01DX005 (ip), vehicle: saline with Tween-80
[5] = dose: 240.0 mg/kg/injection, schedule: Q01DX005 (ip), vehicle: saline with Tween-80
[6] = dose: 50.0 mg/kg/injection, schedule: Q01DX009 (ip), vehicle: saline with Tween-80
[7] = dose: 100.0 mg/kg/injection, schedule: Q01DX009 (ip), vehicle: saline with Tween-80
[8] = dose: 200.0 mg/kg/injection, schedule: Q01DX009 (ip), vehicle: saline with Tween-80
[9] = dose: 100.0 mg/kg/injection, schedule: Q01DX001 (ip), vehicle: saline
[10] = dose: 200.0 mg/kg/injection, schedule: Q01DX001 (ip), vehicle: saline
[11] = dose: 12.5 mg/kg/injection, schedule: Q01DX005 (ip), vehicle: saline with Tween-80
[12] = dose: 25.0 mg/kg/injection, schedule: Q01DX005 (ip), vehicle: saline with Tween-80
[13] = dose: 50.0 mg/kg/injection, schedule: Q01DX005 (ip), vehicle: saline with Tween-80
[14] = dose: 100.0 mg/kg/injection, schedule: Q01DX005 (ip), vehicle: saline with Tween-80
[15] = dose: 200.0 mg/kg/injection, schedule: Q01DX005 (ip), vehicle: saline with Tween-80

Measured: T/C

Cn1c2nc(-[n+]3ccc4ccccc4c3)nc-2c([O-])n(C)c1=O
inactive: dose: 100.0 mg/kg/injection, schedule: Q04DX003 (ip), vehicle: saline 100 % of control | dose: 200.0 mg/kg/injection, schedule: Q04DX003 (ip), vehicle: saline 99 % of control | dose: 400.0 mg/kg/injection, schedule: Q04DX003 (ip), vehicle: saline 100 % of control

CCOC(=O)C1(O)CC2(CCC(OCc3ccccc3)CC2)C(=O)O1 (stereo unspecified)
inactive: [1] 102 % of control | [2] 100 % of control | dose: 200.0 mg/kg/injection, schedule: Q01DX009 (ip), vehicle: saline 98 % of control

COc1cc2cc3c(-c4ccccc4)noc3nc2cc1OC
inactive: [3] 106 % of control | [4] 93 % of control | [5] 90 % of control

N=C(N)SCc1ccc(C(=O)NN2C(=O)c3ccccc3C2=O)cc1
inactive: [6] 92 % of control | [7] 92 % of control | [8] 97 % of control

CCOc1cccc2nncn12
inactive: [9] 102 % of control | [10] 103 % of control

CCCCN(CC)CCCCCCCCCCN1CCCc2cc(OC)ccc21
inactive: [11] 101 % of control | [12] 111 % of control | [13] 115 % of control | [14] 107 % of control

O=C(Nc1cccc(Cl)c1)/C(Cl)=C1/Sc2ccccc2NC1=O
inactive: [13] 105 % of control | [14] 98 % of control | [15] 98 % of control

CC(=O)NC1=CC(=O)c2[nH]c(=O)[nH]c(=O)c2C1=O
inactive: dose: 3.0 mg/kg/injection, schedule: Q01DX005 (ip), vehicle: other 99 % of control | dose: 6.0 mg/kg/injection, schedule: Q01DX005 (ip), vehicle: other 98 % of control | dose: 12.0 mg/kg/injection, schedule: Q01DX005 (ip), vehicle: other 100 % of control

O=C1CN(c2cccc(Cl)c2)C(=O)CN1/N=C/c1cccnc1
inactive: [12] 96 % of control | [13] 87 % of control and 91 % of control | [15] 87 % of control

CSC(=S)N/N=C(\C)Cc1ccccn1
inactive: [11] 102 % of control | [12] 100 % of control | [13] 101 % of control and 95 % of control

Cc1cccn2c([N+](=O)[O-])cnc12
inactive: [6] 102 % of control | [7] 120 % of control | [8] 113 % of control

CN=C1CN=C(OP(=O)(N2CCOCC2)N2CCOCC2)c2cc(Cl)ccc2N1
inactive: dose: 50.0 mg/kg/injection, schedule: Q01DX009 (ip), vehicle: Klucel (hydroxypropylcellulose) (HPC) 98 % of control | dose: 100.0 mg/kg/injection, schedule: Q01DX009 (ip), vehicle: Klucel (hydroxypropylcellulose) (HPC) 101 % of control | dose: 200.0 mg/kg/injection, schedule: Q01DX009 (ip), vehicle: Klucel (hydroxypropylcellulose) (HPC) 100 % of control

COCC1=C(C)CC(C(C)(C)C(=O)OC)C1=O (stereo unspecified)
inactive: [9] 101 % of control | [10] 101 % of control | dose: 400.0 mg/kg/injection, schedule: Q01DX001 (ip), vehicle: saline 104 % of control

CC1C(=O)CCC2(C)CCC(C)(C)CC12 (stereo unspecified)
inactive: [7] 91 % of control | [8] 104 % of control | dose: 400.0 mg/kg/injection, schedule: Q01DX009 (ip), vehicle: saline with Tween-80 95 % of control

COc1ccc(Cc2cc3c(cc2OCC(N)=O)OCO3)cc1
inactive: dose: 6.25 mg/kg/injection, schedule: Q01DX005 (ip), vehicle: saline with Tween-80 90 % of control | [11] 90 % of control

CCN(CC)C(=O)N1CCN(C(=O)c2cc(Nc3ccnc4cc(Cl)ccc34)ccc2O)CC1
inactive: dose: 100.0 mg/kg/injection, schedule: Q04DX002 (ip), vehicle: saline with Tween-80 100 % of control | dose: 200.0 mg/kg/injection, schedule: Q04DX002 (ip), vehicle: saline with Tween-80 100 % of control | dose: 400.0 mg/kg/injection, schedule: Q04DX002 (ip), vehicle: saline with Tween-80 89 % of control

COC(=O)c1noc2c1CSC1=C2CS(=O)(=O)c2ccccc21
inactive: [3] 104 % of control | [4] 104 % of control | [5] 98 % of control

O=[N+]([O-])c1ccc(SCc2ccccc2)c2nonc12
inactive: dose: 12.5 mg/kg/injection, schedule: Q01DX009 (ip), vehicle: suspension in saline 111 % of control | dose: 25.0 mg/kg/injection, schedule: Q01DX009 (ip), vehicle: saline 94 % of control | dose: 25.0 mg/kg/injection, schedule: Q01DX009 (ip), vehicle: suspension in saline 106 % of control | [1] 100 % of control | dose: 50.0 mg/kg/injection, schedule: Q01DX009 (ip), vehicle: suspension in saline 113 % of control | [2] 94 % of control
